Experimental findings from patent US9301923B2, “Lipids, lipid compositions, and methods of using them” (NOVARTIS AG, priority 2009, dated 2016) are described below.

The nature of data set [1]: pKa of the lipid by TNS fluorescence. It counts as physicochemical. Conditions: pKa. Summed up:
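Lipid dissolved in ethanol (2 mM stock) and measured with TNS across eight buffers of differing pH, in water at standard temperature and pressure. Normalized fluorescence intensity plotted against pH and points joined by a smooth line to derive pKa, precise to about 0.2 units.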

Another data set deals with Factor VII. Nature of the data set: Factor VII activity assay, in vivo liver delivery of FVII siRNA LNP. Also on record: species or system mouse. Conditions: dose 1 mg/kg siRNA i.v., ~48 h; lipid/no neutral lipid/CHOL/GM-020 NOF 60/0/36/4, N/P 3. Summed up: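 Female CD-1 mice (~25 g) given a single i.v. tail-vein dose of FVII siRNA in LNPs (cationic, stealth, neutral lipids), dosed as mg siRNA/kg. Plasma collected ~48 h post-injection; FVII activity read against a standard curve from pooled vehicle-control plasma.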

The subject of data set [2] is PLK-1 mRNA in Hep3B tumors. The experiment in a line: Hep3B tumor study, PLK-1 mRNA KD in tumor tissue. It counts as in vivo, human. Conditions: Hep3B tumor, mouse, i.v., LNP composition as in the source.
The subject of data set [3] is PLK-1 mRNA in HepG2 tumors. The experiment in a line: HepG2 tumor study, PLK-1 mRNA KD in tumor tissue. It counts as in vivo, human. Conditions: Mus musculus, HepG2, iv, 24 h, HepG2 tumor in nude mice, 3 × 3 mg/kg siRNA iv, tumors harvested 24 hrs after the last dose; read-out: PLK1 % inhibition. An excerpt:
(§1) Formulated siRNAs are made up of double stranded siRNA sequences specific to a target mRNA sequence, and are in the form of lipid nucleotid particles (LNPs) containing cationic lipids, stealth lipids and neutral lipids, as provided in the Examples below. The siRNA construct for use in targeting the liver is specific to Factor VII. The siRNA construct for use in targeting tumors is specific to PLK1-424, which is published by Judge et al., See, J Clin Invest. 2009 March; 119(3):661-73; doi: 10.1172/JCI37515). • 1. FVII siRNA duplex sequence
HepG2 tumors are established in female nude mice by sc injection of 5×10^6 cells in 100 ul PBS into the left flank. Mice are randomized into treatment groups 10-14 days after seeding as tumors reached an average size of 150 mm^3. siRNA formulated LNP formulations are administered at 3×3 mg/kg dose levels intravenously via the lateral tail vein calculated on a mg siRNAs/kg basis according to individual animal weights (10 ml/kg injection volume). Mice are euthanized by CO2 inhalation at various time points and the tumors are harvested 24 hrs after the last dose for mRNA quantitation. Lipids with a wide range of pKa (5.3-6.6) are used in the LNP formulations. Tumors are measured in 2 dimensions (width×length) to assess tumor growth using digital calipers. Tumor volume is calculated using the equation [a×b×b/2], where a=largest diameter and b=smallest diameter.
About 30-50 mg tumor tissue is homogenized in tissue lysis buffer in a Qiagen homogenizer followed by centrifugation to clarify lysates. Total RNA is isolated using RNeasy isolation kit (catalog number 74106) according to the manufacture's protocol. PLK-1 mRNA is analyzed by quantitative PCR and normalized to human GAPDH. Applied Biosystems human PLK-1 gene expression assay Hs00983229_m1 and human GAPDH endogenous control cat number 4326317E are used for mRNA detection.
The pKa in all tables refers to the pKa of the cationic lipid. Where multiple doses are indicated (e.g., 3×5), the first number indicates the number of doses given and the second number indicates the amount per dose in mg siRNA (biologically active agent) per kg mouse. In general the multiple doses are administered at 24 hour intervals, and tissues for mRNA quantitation are harvested 24 hours after the last dose.

A short description of data set [4]: Particle size and PDI by dynamic light scattering (Malvern Zetasizer). It counts as physicochemical. On the set-up: Final size: unit not given here. Conditions: for Final size: LNP formulation. An outline of the steps: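 Nanoparticles diluted in PBS to a count rate of about 200-400 kcts and measured by dynamic light scattering; size given as intensity-weighted average diameter, with polydispersity index from the same measurement.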

Data set [5] has as its system PLK-1 mRNA in 786-0 tumors. The experiment in a line: 786-0 renal tumor study, PLK-1 mRNA KD in tumor tissue. Type of data set: in vivo, human. Conditions: tumors collected 48 hrs after the single dose, read-out: PLKI % Inhibition.
From the text: as §1
786-0 tumors are established as described before by sc injection of 10×10^6 cells in 200 ul PBS. 4 weeks post implantation, the mice with the tumor size ranging from 200-250 mm^3 are randomized into treatment groups. siRNA formulated LNPs are then intravenously administered at either 5 or 10 mg/kg dose levels. 48 hrs after the single dose, tumors are collected for mRNA quantitation.
About 30-50 mg tumor tissue is homogenized in tissue lysis buffer in a Qiagen homogenizer followed by centrifugation to clarify lysates. […] PLK-1 mRNA is analyzed by quantitative PCR and normalized to human GAPDH. […]
The pKa in all tables refers to the pKa of the cationic lipid. […] In general the multiple doses are administered at 24 hour intervals, and tissues for mRNA quantitation are harvested 24 hours after the last dose.

Where [6] appears, read: LNP formulation with PLK1 siRNA, helper, neutral and stealth lipid, molar ratio and N/P as in the table, stealth lipid S004, molar ratio 45/43/10/2, N/P 4.
[7] abbreviates: lipid/no neutral lipid/CHOL/GM-020 NOF 60/0/36/4, N/P 3.

`CCCCC/C=C\C/C=C\CCCCCCCCOCC(CN1CCCCC1)OCCO[C@H]1CC[C@@]2(C)C(=CC[C@H]3[C@@H]4CC[C@H]([C@H](C)CCCC(C)C)[C@@]4(C)CC[C@@H]32)C1` (some centres unmarked) [E0076] came in with a pKa in data set [1] of 5.85. The FVII inhib % in the data set on Factor VII is on record as 29.3%. Moreover, the PLK1 inhibition % turned out to be 0% in data set [2] (1 × 0.1 mg siRNA/kg) and 85% in data set [2] (1 × 5 mg siRNA/kg). The inhibition at 3 mg/kg in data set [3] was determined as 35%. In addition, the “Final size (nm)” value is 80.98 nm in data set [4] (setting [6]); 86.03 nm in data set [4] (LNP formulation with PLK1 siRNA, helper, neutral and stealth lipid, molar ratio and N/P as in the table, stealth lipid S004, molar ratio 50/48/2, N/P 4); 89.89 nm in data set [4] (LNP formulation with PLK1 siRNA, helper, neutral and stealth lipid, molar ratio and N/P as in the table, stealth lipid S011, molar ratio 60/38/2, N/P 4); 89.47 nm in data set [4] (setting [7]). This molecule had a Final size in data set [4] (Table 10) of 86.03. In data set [4] (setting [7]), this molecule registered a PDI of 0.143.

For the molecule `CCCCC/C=C\C/C=C\CCCCCCCCOCC(CN1CCCCC1)OCCOC(=O)CCC(=O)O[C@H]1CC[C@@]2(C)C(=CC[C@H]3[C@@H]4CC[C@H]([C@H](C)CCCC(C)C)[C@@]4(C)CC[C@@H]32)C1` (some centres unmarked) [E0104], in data set [1], the pKa worked out at 6.1. The PLK1 inhibition % worked out at 48% in data set [2] (1 × 1 mg siRNA/kg, stealth lipid S004, molar ratio 50/48/2, N/P 3) and 50% in data set [2] (1 × 1 mg siRNA/kg, stealth lipid S004, molar ratio 50/48/2, N/P 4). Also, the inhibition at 3 mg/kg in data set [3] stood at 32%. Moreover, the inhibition at 5 mg/kg in data set [5] (1 × 5 mg/kg iv) is 55%. Moreover, in data set [5] (1 × 10 mg/kg iv), the inhibition at 10 mg/kg was found to be 50%. The Final size in data set [4] (Table 11, lipid molar ratio 45/43/10/2) turned out to be 87.59; in data set [4] (Table 11, lipid molar ratio 50/48/2) it was 95.05.

In turn, `CCCCCCCC/C=C\CCCCCCCCOCC(CN1CCOCC1)OCCOCCO[C@H]1CC[C@@]2(C)C(=CC[C@H]3[C@@H]4CC[C@H]([C@H](C)CCCC(C)C)[C@@]4(C)CC[C@@H]32)C1` (some centres unmarked) [E0085] displayed a pKa in data set [1] of 5.32. The PLK1 inhibition % turned out to be 53% in data set [2] (1 × 0.1 mg siRNA/kg), 62% in data set [2] (1 × 2 mg siRNA/kg), 69% in data set [2] (1 × 5 mg siRNA/kg) and 55% in data set [2] (1 × 10 mg siRNA/kg). Further, the inhibition at 3 mg/kg in data set [3] came out at 40%. The “Final size (nm)” value in data set [4] (setting [6]) came to 76.8 nm; in data set [4] (LNP formulation with PLK1 siRNA, helper, neutral and stealth lipid, molar ratio and N/P as in the table, stealth lipid S004, molar ratio 50/38/10/2, N/P 4) it was 88.33 nm; in data set [4] (LNP formulation with PLK1 siRNA, helper, neutral and stealth lipid, molar ratio and N/P as in the table, stealth lipid S004, molar ratio 50/43/5/2, N/P 4) it was 87.74 nm; in data set [4] (LNP formulation with PLK1 siRNA, helper, neutral and stealth lipid, molar ratio and N/P as in the table, stealth lipid S004, molar ratio 50/48/0/2, N/P 4), 96.42 nm; in data set [4] (LNP formulation with PLK1 siRNA, helper, neutral and stealth lipid, molar ratio and N/P as in the table, stealth lipid S004, molar ratio 60/38/2, N/P 4) it was 90.06 nm; in data set [4] (LNP formulation with PLK1 siRNA, helper, neutral and stealth lipid, molar ratio and N/P as in the table, stealth lipid S011, molar ratio 40/48/10/2, N/P 4) it was 81.83 nm. Further, the Final size in data set [4] (Table 10) is listed as 76.8.
